# System: Plasmodium falciparum
# Assay: GSK_TCMDC: Inhibition of Plasmodium falciparum 3D7 in whole erythrocytes, using parasite LDH activity as an index of growth.
# Format: functional, organism-based
# Conditions: Plasmodium falciparum, 3D7
row,Structure (SMILES),XC50
1,O=C(Cc1ccc([N+](=O)[O-])cc1)N1CCc2cc3nccc(N4CCN5CCC[C@@H]5C4)c3cc21,843 nM
2,CCCCOc1ccccc1C(=O)NCc1csc(-c2ccccc2)n1,556 nM
3,CCCc1cc(NCC)nc(Nc2ccc(F)cc2)n1,1030 nM
4,COc1cccc(Nc2nc(NCCO)c3ccccc3n2)c1,151 nM
5,C=C(C)C1CC=C(CN2CCCC(n3ccc4cc(NC(=O)c5ccco5)ccc43)CC2)CC1 (stereo not given),753 nM
6,CCc1cc(-c2onc(C)c2-c2cc3ccccc3o2)c(O)cc1OC,969 nM
7,CCCCCCNC(=O)C1Cc2c([nH]c3ccccc23)C2(CCN(CCc3ccccc3)CC2)N1 (stereo not given),1140 nM
8,CN(C1CCC(NC(=O)/C=C/c2ccccc2)CC1)C1CC2(CCN(C(=O)OC(C)(C)C)CC2)c2ccccc21 (stereo not given),822 nM
9,CCc1c(C)c2ccc3c(c2oc1=O)CN(CCc1ccc(F)cc1)CO3,1230 nM
10,CCCC1N=C(N)N=C(N)N1c1ccc(Cl)cc1 (stereo not given),46.7 nM
11,CCOC(=O)CCCCCNC[C@H](O)c1ccccc1,328 nM
12,COc1ccc2nccc([C@@H](O)CN3CCC(NCc4cc5ccc(Cl)cc5[nH]4)CC3)c2c1,121 nM
13,CC(=O)c1ccc(NC(=O)NNC(=O)c2ccc(CCN3CCC(c4nc(COCC(F)(F)F)c(-c5ccc(F)cc5)o4)CC3)cc2)cc1,835 nM
14,COc1ccccc1C1CCN(C2CCC(NC(=O)/C=C/c3cc(F)cc(C(F)(F)F)c3)CC2)CC1 (stereo not given),901 nM
15,Cc1cccc2nc(-c3ccc(-c4cccc(CNCC5CCCO5)c4)cc3)[nH]c12 (stereo not given),700 nM
16,CC(Cc1ccc(OCCN2CCN(c3ccc(Cl)cc3)CC2)cc1)NCC(O)c1cccc(C(F)(F)F)c1 (stereo not given),807 nM
17,N#Cc1ccc(-c2ccc(C(=O)NCCCCN3CCC(c4ccc5c(c4OCc4ccccn4)CCCC5)CC3)cc2)cc1,824 nM
18,CNc1ccc(CNCc2cccc(-c3ccc(-c4nc5cccc(C)c5[nH]4)cc3)c2)cc1,660 nM
19,CCN(CCCN1CCCCC1)c1cc(C)nc(Nc2ccc(Cl)cc2C)n1,729 nM
20,CC[C@H]1CN2CC[C@H]1C[C@H]2[C@H](O)c1cc(-c2ccc(SC)cc2)nc2ccc(OC)cc12,64.1 nM
21,O=C1CSc2ccc(CNC3CCN(CCc4c(Cl)cnc5ccc(Cl)cc45)CC3)nc2N1,229 nM
22,CCOC(=O)c1nc(-c2cccc(F)c2)[nH]c1N,748 nM
23,COc1ccccc1CCN(C)CCN1CCC(NC(=O)c2ccc(-c3ccc(C(F)(F)F)cc3)cc2)CC1,1030 nM
24,CC(C)(C)CC(C)(C)c1ccc(O)c(C(=O)Nc2ccc([N+](=O)[O-])cc2)c1,774 nM

row,Structure (SMILES),XC50
1,CCNc1cc(C(=O)N[C@@H](Cc2ccccc2)[C@H](O)CNC(C)(C)CSCC(C)C)cc(N2CCCC2=O)c1,260 nM
2,COc1cccc(CN2CCCN(Cc3cccc(NC(=O)c4ccc(-c5ccccc5)cc4)c3)CC2)c1,244 nM
3,CN1CCN(c2ncnc3ccc(NC(=O)Nc4ccc(Cl)c(Cl)c4)cc23)CC1,264 nM
4,CCNc1cc(C(=O)N[C@@H](Cc2ccccc2)[C@H](O)CNC(C)(C)CCCC(C)C)cc(N2CCCCS2(=O)=O)c1,446 nM
5,O=C(Nc1cccc(F)c1)c1ccc(C(=O)NC2CCN(CC3CCCCC3)C2)cc1 (stereo not given),929 nM
6,N#Cc1ccc(-c2ccc(C(=O)NCCCCN3CCC(c4ccncc4)CC3)cc2)cc1,813 nM
7,CS(=O)(=O)CCNCc1cccc(-c2cc3nccc(Nc4ccc(Oc5ccccc5)cc4)c3cc2Cl)c1,625 nM
8,C[C@H](NC(=O)C1CCCC1)C(=O)Nc1ccc(-c2ccc(-c3nc4cc(C(F)(F)F)ccc4[nH]3)cc2)cc1,272 nM
9,Cc1ccc2[nH]c(C)cc(=NN=Cc3ccccc3F)c2c1,171 nM
10,O=C(/C=C/c1ccc(Cl)c(Cl)c1)NCCCCCN1CCCN(C(=O)Nc2ccc(OC(F)F)cc2)CC1,833 nM
11,Clc1cccc(Nc2ccc3c(N4CCCCC4)ncnc3n2)c1,577 nM
12,CN(C)C(S)=NN=Cc1cccc(O)c1O,872 nM
13,COc1ccc(C[C@@H](C)NC[C@H](O)c2cccc(Cl)c2)cc1F,867 nM
14,CCCCCCOc1ccc(C(=O)NCCCC2CCCN(CCCCCNC(=O)C=Cc3ccc(Cl)c(Cl)c3)C2)cc1 (stereo not given),703 nM
15,CN(C)c1ccnc2ccc(NC(=O)Nc3ccnc4ccccc34)cc12,133 nM
16,Cc1cnc(N2CCN(CC3CCN(C)CC3)CC2)nc1Oc1ccc(-n2ccnc2)cc1,725 nM
17,CNc1ccc(CNCc2cccc(-c3ccc(-c4nc5cc(C(F)(F)F)ccc5[nH]4)cc3)c2)cc1,112 nM
18,CCCCn1c(Sc2ccc(C#N)c([N+](=O)[O-])c2)nnc1-c1cc(OC)cc(OC)c1,824 nM
19,Fc1ccc2[nH]c(-c3cccc(-c4cccc(CNCCN5CCNCC5)c4)c3)nc2c1,842 nM
20,COc1cc(C=Cc2ccc3ccccc3n2)cc(Br)c1OCC(=O)N(C)C,1100 nM
21,Cc1cnn(-c2cccc(C(=O)NC3CCC(CCN4CCc5ccc(C#N)cc5CC4)CC3)c2)c1 (stereo not given),932 nM
22,CCN(CC)CCCN(C(=O)c1cc2c(C)nn(-c3ccccc3)c2s1)c1nc(-c2ccc(OC)cc2)cs1,1150 nM
23,CSC1=NC(C)(C)CC2(CC(c3cccc(C)c3)c3cc(Cl)c(O)cc3O2)N1 (stereo not given),879 nM
24,CS(=O)(=O)c1ccc(CNCc2cccc(-c3cccc(-c4nc5ccccc5[nH]4)c3)c2)cc1,590 nM

row,Structure (SMILES),XC50
1,CCS(=O)(=O)N1CCN(c2nc(-c3ccccc3)nc(COC)c2Cc2ccccc2F)CC1,1450 nM
2,CS(=O)(=O)c1ccc(CNCc2ccc(-c3cccc(-c4nc5cc(C(F)(F)F)ccc5[nH]4)c3)cc2)cc1,138 nM
3,O=C(NCC1CCN(C/C=C/c2ccccc2)CC1)Nc1ccc(Oc2ccccc2)cc1,1040 nM
4,O=c1n[n+](C2CCCCC2)[n-]o1,934 nM
5,Cc1nc(C)c(-c2ccc(Cl)cc2)c(O)c1I,674 nM
6,COc1ccc2c(=NN=Cc3cccc(F)c3)cc(C)[nH]c2c1,777 nM
7,OCC1CCN(Cc2ccc(-c3cccc(-c4nc5ccccc5[nH]4)c3)cc2)CC1,813 nM
8,CCCCN(CCCC)CCC(O)C(=Cc1ccc(Cl)cc1Cl)c1ccc(C(F)(F)F)cc1N (stereo not given),193 nM
9,COc1ccccc1NC(=O)Nc1ccc(-c2ccc(-c3nc4cccc(C)c4[nH]3)s2)cc1,158 nM
10,CC(=O)Nc1ccc(CN2CCCN(c3cc(NC(=O)c4cccc(C)c4)ccn3)CC2)cc1,863 nM
11,CCc1cn(CCOC)c2ccc(C(=O)N[C@@H](Cc3ccccc3)[C@H](O)CNC(C)(C)CCCC(C)C)cc12,569 nM
12,Oc1cc2c(cc1CN1CCN(Cc3ccccc3)CC1)CCC2,721 nM
13,O=C(/C=C/c1ccc(Cl)c(Cl)c1)NCCCCCCN1CCN(C(=O)Nc2ccc(Cl)c(C(F)(F)F)c2)CC1,526 nM
14,COc1cccc(CN2CCCN(Cc3cccc(NC(=O)c4ccc(Cl)c(Cl)c4)c3)CC2)c1,1460 nM
15,N=C(N)Nc1ccc(NC(=O)Nc2ccc(NC(=N)N)cc2)cc1,386 nM
16,N#Cc1cccc(NC(=O)Nc2cccc(-c3cccc(-c4nc5cc(C(F)(F)F)ccc5[nH]4)c3)c2)c1,224 nM
17,COc1ccc(CNC2CCN(C)CC2)cc1-c1ccc(S(=O)(=O)NCc2ccccc2)s1,230 nM
18,Cc1c(C)c2c(c(C)c1O)CC[C@](C)(C(=O)N1CCC(CCN3CCC(c4c[nH]c5ccccc45)CC3)CC1)O2,834 nM
19,N=C(N)NC(=O)Nc1ccc(Cl)c(Cl)c1,1040 nM
20,Cc1[nH]c(C)c(-c2ccc(OCc3ccc(OC(F)(F)F)cc3)nc2)c(=O)c1Br,140 nM
21,Cn1nc(C(F)(F)F)c(-c2ccc(Br)cc2)c1NC(=O)Nc1ccc(F)cc1F,793 nM
22,Cc1cccc2nc(-c3ccc(-c4cccc(CNCCc5ccncc5)c4)cc3)[nH]c12,204 nM
23,Cc1noc(C)c1-c1ccc2c(Nc3cccc4c3-c3ccccc3C4=O)c(C(=O)NCc3ccccc3I)cnc2c1,627 nM
24,Fc1ccc2c(NN=Cc3ccc(Cl)cc3)ccnc2c1,754 nM

row,Structure (SMILES),XC50
1,COc1ccc(CN(C)CCCc2ccc(NC(=O)c3cc4ccccc4[nH]3)cc2)cc1OC,725 nM
2,Cc1cc(NC(=O)NCCN2CCC(NS(=O)(=O)c3cccc(Br)c3)C2)c2ccccc2n1 (stereo not given),606 nM
3,CCn1ccc2c(N3CCCS3(=O)=O)cc(C(=O)N[C@@H](Cc3ccccc3)[C@H](O)CNC(C)(C)CCCC(C)C)cc21,491 nM
4,Fc1ccc(NC(=S)NCCc2ccccc2)cc1,781 nM
5,Cc1nc(N)nc(N)c1-c1ccc(Br)c([N+](=O)[O-])c1,201 nM
6,O=C(CCCCCc1ccccc1)NC1CCC(CN2CCC(c3c[nH]c4ccccc34)CC2)CC1 (stereo not given),1140 nM
7,COc1ccc2nccc([C@@H](O)CN3CCC(NC(=O)C(c4cc5ccccc5o4)N4CCN(c5ccccc5)CC4)CC3)c2c1 (stereo not given in full),238 nM
8,O=C(CSc1nnc(O)n1Cc1ccccc1)Nc1ccccc1-c1ccccc1,953 nM
9,CN(c1ccc2c(c1)nc(Nc1cc(C(C)(C)C)on1)n2C)c1ccnc(Nc2ccc(CS(C)(=O)=O)cc2)n1,900 nM
10,CN(C)CCCOC(=O)c1cc2cc(-c3ccccc3)ccc2n1S(=O)(=O)Cc1ccccc1,361 nM
11,Cc1cc(N2CCCC2)nc(Nc2ccc(NC(=O)C3CCCC3)cc2)n1,1110 nM
12,CCS[C@@H]1O[C@H](COC(=O)c2ccccc2)[C@H](OC(=O)c2ccccc2)[C@H](OC(=O)c2ccccc2)[C@H]1OC(=O)c1ccccc1,808 nM
13,Cn1cncc1C(=O)Nc1cccc(-c2cccc(-c3nc4cc(C(F)(F)F)ccc4[nH]3)c2)c1,205 nM
14,COc1ccc2nccc([C@@H](O)CN3CCC(NC(=O)/C(=C/c4ccccc4)c4ccc(-c5ccccc5)cc4)CC3)c2c1,1050 nM
15,CN1CCN(c2cccc(-c3nnc(-c4ccc(OCC(=O)NCc5cccc(C(F)(F)F)c5)c([N+](=O)[O-])c4)o3)c2)CC1,962 nM
16,Cc1nc(-c2nc(NCCc3ccncc3)ncc2-c2ccsc2)sc1C,298 nM
17,O=C(Nc1ccc(F)cc1F)NC1CCN(c2ccnc3cc(Cl)ccc23)C1 (stereo not given),245 nM
18,Cc1c(F)cc(C(=O)NC2CC2)cc1-c1ccc2c(cnn2S(=O)(=O)c2ccc(F)c(F)c2)c1,265 nM
19,Cc1cccc2nc(-c3ccc(-c4ccc(NC(=O)C5CCN(C)CC5)cc4)cc3)[nH]c12,748 nM
20,NC1=NC2(CCCC2)C(c2ccc(Cl)c(Cl)c2)C(N)=N1 (stereo not given),987 nM
21,O=C(Nc1ccc(-c2ccccc2)cc1)Nc1cccc(Cn2nc(Cl)c(N3CCCNCC3)cc2=O)c1,676 nM
22,N#Cc1cccc(CN(Cc2ccc(Cl)c(Cl)c2)S(=O)(=O)c2cccc([N+](=O)[O-])c2)c1,808 nM
23,CC(Nc1ccnc2cc(Cl)ccc12)c1ccc(S(N)(=O)=O)cc1 (stereo not given),933 nM

# Source: ChEMBL document CHEMBL1157539, “Thousands of chemical starting points for antimalarial lead identification” (Nature, 2010)
